Experimental data: patent publication US20240245639A1, “Dermal Application of Retinoic Acid Receptor Agonists for Amelioration of Hypertrophic Scar” (Northwestern University, priority 2023, published 2024)
Where two headings read alike, the source gives them in different places.

Experiments:
Type in all cases: cell-based
[1] = system: primary human foreskin fibroblasts; assay: Antagonism of fibroblast activation in presence or absence of TGF-β1 (qRT-PCR, Western blot, immunofluorescence); conditions: 10,000 nM ATRA, ± 10 ng/mL TGF-β1, 48 hours
Procedure: RAR Agonist all-Trans Retinoic Acid Antagonizes Myofibroblast Activation We then wished to see whether another RAR agonist could antagonize myofibroblast activation.
(§1) Cells cultured on glass coverslips were fixed in 4% paraformaldehyde for 30 minutes at room temperature. Cells were blocked in 10% normal goat serum and incubated overnight at 4° C. in solutions of the following primary antibodies: Rabbit monoclonal α-human α-SMA (1:500 dilution, catalog #192455, Cell Signaling Technology, Danvers M A) or mouse α-human COL1A1 (1:1000 dilution, catalog #M-38c, DSHB, Iowa City, IA). The following day, cells were incubated in 1:200 diluted solutions of goat-α-rabbit IgG or donkey-α-mouse IgG Alexafluor 488-conjugated secondary antibodies (A11034 or A21202, Invitrogen) containing Alexafluor 568-conjugated phalloidin (A12380, Invitrogen) for 2 hours in the dark at room temperature, before a 20 minute counterstain in 500 ng/mL DAPI. Coverslips were mounted onto slides in the dark using Fluoro Gel with DABCO (Electron Microscopy Sciences, Hatfield, PA) and imaged on an EVOS-FL imaging system (ThermoFisher).
Harvested scar tissues were incubated in 0.5M ammonium thiocyanate for 20 minutes, followed by mechanical separation of dermis and epidermis using a dissecting microscope. Isolated dermal tissues were minced with a razor blade, submerged in RIPA buffer, and homogenized in the presence of 2 mm zirconia beads using a MagNA Lyser (Roche, Basel, Switzerland). Alternatively, cell culture samples were detached from the culture surface by trypsinization, collected by centrifugation, and lysed in RIPA buffer. Protein concentrations of cell culture and tissue samples were determined using a DC protein assay (BioRad). Five micrograms of total protein were loaded onto polyacrylamide gels and subjected to SDS-PAGE before transfer to nitrocellulose membranes, blocking with 5% dry milk in TBS-T, and probing with target-specific primary antibodies overnight. Species-specific secondary antibody solutions were added to membranes, and chemiluminescent signal was developed with Amersham ECL Western blotting detection reagent using X-ray film.
Primary antibodies used were rabbit anti-α-SMA (1:1000, 19245S, Cell Signaling Technology), rabbit anti-collagen I (1:1000, ab34710, Abcam), mouse anti-collagen I (1:1000, C2456, Sigma-Aldrich), and mouse anti-GAPDH (1:5000, MA5-15738, Invitrogen). Secondary antibodies utilized were HRP goat anti-rabbit IgG(H+L) and horse anti-mouse IgG(H+L) (Vector Laboratories, Newark, CA), both used at 1:5000.

[2] = system: primary human keloid fibroblasts; assay: Collagen I deposition in keloid fibroblasts (Western blot, immunofluorescence); conditions: keloid fibroblasts, ATRA, data not shown
Procedure: (§2) Since overproduction of collagen is characteristic of fibroblasts in tissue fibrosis, including hypertrophic scar and keloid, we wished to determine whether Ch55 also affects deposition of collagen I by these fibroblasts.
as §1, with “Coverslips were mounted onto slides in the dark using Fluoro Gel with DABCO (Electron Microscopy Sciences, Hatfield, PA) and imaged on an EVOS-FL imaging system (ThermoFisher).” left out
(§3) Harvested scar tissues were incubated in 0.5M ammonium thiocyanate for 20 minutes, followed by mechanical separation of dermis and epidermis using a dissecting microscope. […] Protein concentrations of cell culture and tissue samples were determined using a DC protein assay (BioRad). […]

[3] = system: primary human HTS fibroblasts; assay: Collagen I deposition in hypertrophic scar fibroblasts (Western blot, immunofluorescence); conditions: HTS fibroblasts, ATRA, data not shown
Procedure: as §2
as §1, with “Coverslips were mounted onto slides in the dark using Fluoro Gel with DABCO (Electron Microscopy Sciences, Hatfield, PA) and imaged on an EVOS-FL imaging system (ThermoFisher).” left out
as §3

[4] = system: primary human foreskin fibroblasts; assay: In vitro single-concentration screen of predicted compounds (brightfield, qRT-PCR)
Procedure: In order to initially test the identified drugs, we applied each drug or DMSO vehicle control at a single concentration to primary human foreskin fibroblasts in vitro for 24 hours, before harvesting and measuring relative expression of selected myofibroblast marker genes by qRT-PCR. […] None of the drugs tested appeared to affect expression of TGFB1 (the gene encoding transforming growth factor-beta 1) at the examined concentrations.
MATERIALS AND METHODS Materials Emetine dihydrochloride hydrate, homoharringtonine, Ch55 and panobinostat were acquired from Fisher Scientific (Waltham, MA). AZD-7762 was acquired from Selleck Chemicals (Houston, TX). For in vitro work, emetine dihydrochloride hydrate was dissolved in sterile H2O at 50 mM. Homoharringtonine was dissolved in DMSO at 10 mg/mL. Panobinostat was dissolved in DMSO at 425 μM. […] AZD-7762 was dissolved in DMSO at 500 μM. Recombinant human TGF-β1 (Sigma-Aldrich) was dissolved in sterile H2O at 50 µg/mL. All-trans-retinoic acid (Thermo Scientific) was dissolved in DMSO at 10 mM.

[5] = single concentration, 24 hours, vs vehicle

## CC1=C(/C=C/C(C)=C/C=C/C(C)=C/C(=O)O)C(C)(C)CCC1 [ATRA, all-trans retinoic acid]
[1]
  F-actin stress fiber formation: substantially decreased
  collagen I protein (Western blot, immunofluorescence): substantially decreased
  α-SMA protein (Western blot, immunofluorescence): substantially decreased
[2]
  expression of collagen I: dramatically decreased
[3]
  expression of collagen I: dramatically decreased

## COC(=O)C[C@](O)(CCCC(C)(C)O)C(=O)O[C@@H]1C(OC)=C[C@]23CCCN2CCc2cc4c(cc2[C@H]13)OCO4 [homoharringtonine]
[4]
  detachment of cells from the tissue culture plate: notable detachment of cells

## CC[C@H]1CN2CCc3cc(OC)c(OC)cc3[C@@H]2C[C@@H]1C[C@H]1NCCc2cc(OC)c(OC)cc21 [emetine]
[4]; single concentration, 24 hours
  detachment of cells from the tissue culture plate: notable detachment of cells
  myofibroblast activation: induced myofibroblast activation
[4]; [5]
  CCN2 expression (qRT-PCR): increased expression
  MMP1 expression (qRT-PCR): decreased expression
  SERPINE1 expression (qRT-PCR): increased expression

## NC(=O)Nc1cc(-c2cccc(F)c2)sc1C(=O)N[C@H]1CCCNC1 [AZD-7762]
[4]; single concentration, 24 hours
  downregulation of myofibroblast-associated genes: neither did it appear to downregulate
  myofibroblast activation: did not show a similar effect of fibroblast activation
